Here are results for two compounds from EP0445156B1, “AGENTS FOR TREATING CHRONIC INFLAMMATORY DISEASES OF THE INTESTINES” (HENNING BERLIN GmbH CHEMIE- UND PHARMAWERK, priority 1988, dated 1990).

For data set [1] the following is noted: general statement, no solvent or temperature given; cited from earlier work.
The nature of data set [2]: pH of aqueous solution. Type of data set: physicochemical. The following applies: 5%ige wäßrige Lösung. An excerpt: Aus der DE-OS 37 07 999 ist bekannt, Oxipurinol zur Verminderung von Zellschäden nach der Ischämie und vor der Reperfusion zu verwenden, und zwar durch intravenöse Verabreichung eines Alkalimetallsalzes, insbesondere des Natriumsalzes. Aus den Beispielen geht jedoch hervor, daß nicht das reine Natriumsalz verwendet wurde, sondern ein Gemisch aus Salz und überschüssiger Natronlauge. Dies ergibt sich vor allem aus den pH-werten der ca. 1 bis 2%-igen Lösungen von 11,5 bzw. 12,0. Das jetzt erstmals von der Anmelderin in reiner und kristalliner Form hergestellte Natriumsalz besitzt in 5%-iger wäßriger Lösung einen pH-wert von 9,7 und kristallisiert als Monohydrat aus.
(§1) Bei diesem Natrium-Salz handelt es sich um Mono-Natriumoxipurinol-Monohydrat. Das Salz ist weiß und kristallisiert in feinen Nadeln. In wäßriger Lösung reagiert es alkalisch, eine 5%ige Lösung besitzt einen pH-Wert von 9,7. Seine Löslichkeit beträgt: in Wasser bei 25°C 15,8 g/l 0°C 7,2 g/l in Methanol/Wasser (3:1 Vol.) bei 25°C ca. 2,0 g/l

The nature of data set [3]: Solubility. As to conditions: read-out: Löslichkeit. The format is physicochemical. How it is done:
as §1

A short description of data set [4]: Stability of the solid salt (air, drying temperature). The format is physicochemical. How it is done:
Das Salz ist luftbeständig und verträgt Trockentemperaturen bis etwa 70°C. Aus seiner heißen Lösung läßt sich mit verdünnter Salzsäure (10%ig) Oxipurinol fast quantitativ ausfällen.

The test system of data set [5] is durch TNB (Trinitrobenzoesulfonsäure) ausgelösten Colitis der Ratte. Kind of data set: Histological proof of the anti-inflammatory effect in TNB-induced colitis of the rat. The format is in vivo. The following applies: 25 mg TNB rektal, 5 mg oral über Schlundsonde im Abstand von 8 Stunden, 3. - 21. Tag, TNB alone: Grad II - III. As to the method: (§2) Bei 10 Ratten (Körpermaße: 200-250 g) wurde durch rektale Instillation von 25 mg TNB (in 0,25 ml 30%iger ethanolischer Lösung) eine Colitis ausgelöst. Eine in gleicher Weise behandelte Gruppe von 10 Tieren erhielt vom 3. - 21. Tage nach der TNB-Gabe im Abstand von 8 Stunden 5 mg Oxipurinol-Na, das in 0,5 ml Glucoselösung aufgelöst war, oral über eine Schlundsonde verabreicht. Eine weitere Gruppe von 10 Tieren erhielt lediglich 0,25 ml der 30%igen Ethanollösung rektal instilliert, und weitere 10 Tiere dienten als Kontrolle.
Der Darm (Rectum) der mit TNB behandelten Tiere zeigte eine chronisch-rezidivierende Colitis Grad II - III. Bei einigen Tieren wurden inkomplette Erosionen, insbesondere in den über den Lymphfollikeln gelegenen Stellen des Oberflächenepithels, sehr dichte Infiltrate in der Submukosa und reichlich perivaskulär gelegene Mastzellen im umgebenden Fettgewebe, beobachtet. Die mit TNB und Oxipurinol-Na behandelten Tiere zeigten deutlich geringer ausgeprägte Entzündungemerkmale (Grad I): eine geringfügige Vermehrung von Lymphozyten und Mastzellen sowie ein geringes Ödem.

Data set [6] shares this test system. Kind of data set: Biochemical proof of the anti-inflammatory effect in TNB-induced colitis of the rat (purine nucleotides, TBA-RS in gut samples). The format is in vivo. As to conditions: 21. Tag, 5 mg oral every 8 h, day 3-21. As to the method: as §2
Bei den im Beispiel 13 charakterisierten Tiergruppen wurden am 21. Tag Darmproben auf den Gehalt an Purinnukleotiden und Lipidperoxydationsprodukten (Thiobarbitursäure-reaktive Substanzen: TBA-RS) hin untersucht.
Die nach TNB-Applikation erhöhte Konzentration von TBA-RS wird durch Oxipurinol-Na-Zugabe auf46 % gesenkt und liegt damit sogar noch unter den Kontrollwerten. Danach verhindert Oxipurinol-Na den durch TNB ausgelösten Abfall der Adenin-'und Guaninnukleotide und die gesteigerte Lipidperoxydation.

Converted amounts (≈) assume the structure as drawn. Where two headings read alike, the source gives them in different places.

As for `O=c1[nH]c(=O)c2c[nH]nc2[nH]1` [Oxipurinol], the “Löslichkeit (in words)” value in data set [1] was “sehr schwer löslich”.

Turning to `O=c1[nH]c(=O)c2cn[nH]c2[nH]1` [Oxipurinol-Natrium, Mono-Natriumoxipurinol-Monohydrat], the pH-Wert in data set [2] is given as 9,7. The solubility was around 2000 µg/mL (≈ 13.1 mM) in data set [3] (methanol/water (3:1 vol.), organic solvent or mixture, in Methanol/Wasser (3:1 Vol.) bei 25°C); 7200 µg/mL (≈ 47.3 mM) in data set [3] (water, in Wasser bei 0°C); 15800 µg/mL (≈ 104 mM) in data set [3] (water, in Wasser bei 25°C). Moreover, in data set [4], the Luftbeständigkeit entry is on record as “luftbeständig”. Moreover, the “verträgt Trockentemperaturen” value in data set [4] (drying) was at most 70 °C. For the same compound, the “Entzündungsmerkmale / Colitis Grad (Rectum, histologisch)” value in data set [5] is “Grad I”. The “Gehalte an Adenin- und Guaninnukleotiden (Darmproben) versus Ethanol- und Kontrollgruppe” value in data set [6] is “unterschieden sich nicht signifikant”.
